Earlier results in patent US20190161549A1, “COMBINATION THERAPY WITH A MEK INHIBITOR, A PD-1 AXIS INHIBITOR, AND A VEGF INHIBITOR” (Genentech, Inc., priority 2016, published 2019).
Where two headings read alike, the source gives them in different places.

Key:
[1] = not given; remark: listed apart in the source
[2] = test system: human tumor cell lines; conditions: through inhibition of MEK1 and MEK2
[3] = test system: human tumor xenograft models
[4] = test system: cancer patients; conditions: 14 CRC patients
[5] = dose range 0.05 mg/kg (approximately 3.5 mg for 70 kg adult) to 80 mg
[6] = with or without high-fat meal, versus cobimetinib alone fasted

Compound | Kaplan-Meier estimated overall 24-week progression-free survival (PFS) rate (Study PCD4989g, 95% CI: 12%, 53%) | anti-tumor activity (across doses from 1 to 20 mg/kg) | exposure of fixed dose 800 mg q2w versus 1200 mg q3w ([1]; 800 mg every two weeks (equivalent to 10 mg/kg q2w)) | dose proportionality of pharmacokinetics ([1]; doses ≥1 mg/kg every three weeks (q3w)) | proliferation of a variety of human tumor cell lines [2] | ERK phosphorylation in xenograft tumor models [3] | response in colorectal cancer (CRC) patients [4] | dose proportionality of pharmacokinetics [5] | effect of proton pump inhibitor rabeprazole on pharmacokinetics [6]
atezolizumab: anti-PD-L1 antibody, CAS Registry Number: 1422185-06-5 | 33% | has been observed | equivalent exposure | linear |  |  |  |  | 
O=C(c1ccc(F)c(F)c1Nc1ccc(I)cc1F)N1CC(O)([C@@H]2CCCCN2)C1 [cobimetinib, (S)[3,4-Difluoro-2-(2-fluoro-4-iodophenylamino)phenyl][3-hydroxy-3-(piperidin-2-yl]azetidin-1-yl) methanone] |  |  |  |  | inhibits proliferation | inhibits ERK phosphorylation | all patients experienced progressive disease | linear pharmacokinetics | minimal effect
